According to publication PMC8645421 (Computational and Structural Biotechnology Journal, 2021):
Each block holds one molecule with its values, some of them ahead of it.

Columns and labels:
Conditions in all cases: read-out: Km (mM) ^3; 50 mM Britton and Robinson buffer, pH 7.0, 30 °C
T0191 [1] = experiment: HPAEC-PAD; assay type: biochemical, uncultured Marinifilaceae bacterium
T0193 [2] = experiment: HPAEC-PAD; assay type: biochemical, uncultured Flavobacteriaceae bacterium
T0215 [3] = experiment: HPAEC-PAD; assay type: biochemical, uncultured Marinifilaceae bacterium
T0218 = experiment: pNP release at […] nm; assay type: biochemical, metagenome
T0217 = experiment: pNP release at […] nm; assay type: biochemical, metagenome
T0220 = experiment: pNP release at […] nm; assay type: biochemical, metagenome
T0216 = experiment: pNP release at […] nm; assay type: biochemical, uncultured Flavobacteriaceae bacterium
T0193 [4] = experiment: pNP release at […] nm; assay type: biochemical, uncultured Flavobacteriaceae bacterium
T0191 [5] = experiment: pNP release at […] nm; assay type: biochemical, uncultured Marinifilaceae bacterium
T0215 [6] = experiment: pNP release at […] nm; assay type: biochemical, uncultured Marinifilaceae bacterium
T0201 = experiment: pNP release at […] nm; assay type: biochemical, metagenome
T0199 = experiment: pNP release at […] nm; assay type: biochemical, metagenome
T0207 = experiment: pNP release at […] nm; assay type: biochemical, Osedax
T0204 = experiment: pNP release at […] nm; assay type: biochemical, metagenome

SMILES: CC(=O)N[C@H]1[C@H]([C@H](O)[C@H](O)CO)O[C@@](O[C@H]2[C@@H](O)[C@@H](CO)O[C@@H](O[C@H]3[C@H](O)[C@@H](O)C(O)O[C@@H]3CO)[C@@H]2O)(C(=O)O)C[C@@H]1O (stereo partly drawn) [3-Sialyllactose]
Km (T0191 [1]): 0.031 ± 0.001 mM
Km (T0193 [2]): 0.082 ± 0.06 mM

SMILES: CC(=O)N[C@H]1[C@H]([C@H](O)[C@H](O)CO)O[C@@](OC[C@H]2O[C@@H](O[C@H]3[C@H](O)[C@@H](O)C(O)O[C@@H]3CO)[C@H](O)[C@@H](O)[C@H]2O)(C(=O)O)C[C@@H]1O (stereo partly drawn) [6-Sialyllactose]
Km (T0191 [1]): 0.053 ± 0.001 mM

SMILES: OC[C@H]1O[C@H](O[C@H]2[C@@H](O)[C@@H](CO)OC(O)[C@@H]2O)[C@H](O)[C@@H](O)[C@H]1O (stereo partly drawn) [Galactose-α-1,3-galactose]
Km (T0215 [3]): 0.048 ± 0.009 mM

SMILES: CCCCCCCCCCCCC/C=C/[C@@H](O)[C@@H](N)CO[C@@H]1O[C@H](CO)[C@@H](O[C@@H]2O[C@H](CO)[C@H](O[C@H]3O[C@H](CO)[C@H](O)[C@H](O)[C@H]3O)[C@H](O)[C@H]2O)[C@H](O)[C@H]1O [Globotriaosylsphingosine]
Km (T0215 [3]): 0.058 ± 0.007 mM

Km (T0218): 0.326 ± 0.037 mM
SMILES: CC(=O)N[C@H]1[C@H](Oc2ccc([N+](=O)[O-])cc2)O[C@H](CO)[C@H](O)[C@@H]1O [pNP-NAβGal]

SMILES: CC(=O)N[C@H]1[C@H](Oc2ccc([N+](=O)[O-])cc2)O[C@H](CO)[C@@H](O)[C@@H]1O [pNP-NAβGlu]
Km (T0217): 0.028 ± 0.012 mM
Km (T0218): 0.134 ± 0.015 mM
Km (T0220): 0.042 ± 0.004 mM
Km (T0216): 0.025 ± 0.006 mM

SMILES: CC(=O)N[C@H]1[C@H]([C@H](O)[C@H](O)CO)O[C@@](Oc2ccc([N+](=O)[O-])cc2)(C(=O)O)C[C@@H]1O [pNP-Neu5Ac]
Km (T0193 [4]): 0.55 ± 0.17 mM
Km (T0191 [5]): 0.18 ± 0.03 mM

SMILES: O=[N+]([O-])c1ccc(O[C@H]2O[C@H](CO)[C@H](O)[C@H](O)[C@H]2O)cc1 [pNP-αGal]
Km (T0215 [6]): 0.062 ± 0.008 mM
Km (T0201): 6.22 ± 0.93 mM

Km (T0199): 1.08 ± 0.15 mM
SMILES: C[C@@H]1O[C@@H](Oc2ccc([N+](=O)[O-])cc2)[C@H](O)[C@H](O)[C@H]1O [pNP-αRham]

Km (T0207): 0.0118 ± 0.003 mM
SMILES: C[C@H]1O[C@@H](Oc2ccc([N+](=O)[O-])cc2)[C@H](O)[C@@H](O)[C@H]1O [pNP-β-Fuc]

Km (T0207): 0.199 ± 0.032 mM
SMILES: O=[N+]([O-])c1ccc(O[C@@H]2O[C@H](CO)[C@H](O)[C@H](O)[C@H]2O)cc1 [pNP-βGal]

Km (T0204): 0.127 ± 0.036 mM
SMILES: O=[N+]([O-])c1ccc(O[C@@H]2O[C@H](CO)[C@@H](O)[C@H](O)[C@@H]2O)cc1 [pNP-βMan]
